Assay results taken from PubChem BioAssay AID1340 (NMMLSC, 2008).

Biological target: Ras-related C3 botulinum toxin substrate 1 (Homo sapiens) (UniProt P63000)
Assay: wildtype Rac1 GTP binding inhibitors, dose response, biochemical, multiplex bead flow cytometry (AID 1340)
Conditions: GST-Rac1 beads, Bodipy-FL-GTP binding

Going from COc1cc(/C=N/Nc2nnc3c(n2)[nH]c2ccccc23)ccc1O to COc1ccc(C(=O)/C=C/Nc2ccc(S(=O)(=O)Nc3nc(C)cc(C)n3)cc2)cc1OC, the EC50 rises from 0.634 µM to 3.12 µM (4.9-fold). The first is the more potent here.

With NC(=S)N=Nc1c(O)[nH]c2ccc(F)cc12 the EC50 was 3.46 µM.
